Assay results as given in patent US12071443B2, “Prolyl hydroxylase domain-containing protein (PHD) inhibitors and uses thereof” (Insilico Medicine IP Limited, priority 2021, dated 2024).

Columns and labels:
[1] = molecular target: PHD2 (Homo sapiens, UniProt Q9GZT9); assay: PHD2 enzymatic assay (AlphaScreen); format: biochemical; conditions: PHD2 enzyme, AlphaScreen, IC50 from % inhibition; read-out: PHD2
[2] = system: Caco2-HIF1α-HiBiT-clone-1 cells; assay: Caco-2 HIF1α-HiBiT assay; format: cell-based; conditions: Homo sapiens, Caco-2; Caco2-HIF1α-HiBiT-clone-1 cells, 6 h incubation, luminescence; read-out: Caco2-HIF1α-HiBit assay - EC50

Sequence of PHD2 (Q9GZT9 whole entry): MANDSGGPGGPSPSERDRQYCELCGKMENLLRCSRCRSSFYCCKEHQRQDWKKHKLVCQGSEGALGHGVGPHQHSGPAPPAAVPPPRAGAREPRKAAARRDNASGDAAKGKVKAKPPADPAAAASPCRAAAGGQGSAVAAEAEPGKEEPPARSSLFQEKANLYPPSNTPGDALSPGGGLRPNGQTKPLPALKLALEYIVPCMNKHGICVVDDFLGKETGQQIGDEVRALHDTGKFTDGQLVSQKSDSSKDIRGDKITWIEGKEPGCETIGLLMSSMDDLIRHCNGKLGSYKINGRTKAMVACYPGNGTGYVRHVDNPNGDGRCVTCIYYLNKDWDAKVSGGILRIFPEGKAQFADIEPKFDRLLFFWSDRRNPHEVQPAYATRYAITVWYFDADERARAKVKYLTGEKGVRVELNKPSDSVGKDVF

SMILES | IC50 [1] | EC50 [2]
CCOC(=O)C1CCN(c2ccc3c(O)c(C(=O)NCc4ccc(C#N)nc4)ncc3n2)CC1 [Example 94] | < 5 nM | 7500 to 10000 nM
CC(C)OC(=O)C1CCN(c2ccc3c(O)c(C(=O)NCc4ccc(C#N)nc4)ncc3n2)CC1 [Example 95] | < 5 nM | 10000 to 100000 nM
N#Cc1ccc(CNC(=O)c2ncc3nc(N4CCC(C(=O)OC5CC5)CC4)ccc3c2O)cn1 [Example 96] | < 5 nM | 10000 to 100000 nM
N#Cc1ccc(CNC(=O)c2ncc3nc(N4CCOCC4=O)ccc3c2O)cn1 [Example 100] | 5 to 20 nM | 7500 to 10000 nM
CC(C)(C)OC(=O)N1CCN(c2ccc3c(O)c(C(=O)NCc4ccc(C#N)nc4)ncc3n2)C(=O)C1 [Example 101] | < 5 nM | 2500 to 5000 nM
N#Cc1ccc(CNC(=O)c2ncc3nc(N4CCOC4=O)ccc3c2O)cn1 [Example 103] | < 5 nM | 2500 to 5000 nM
N#Cc1ccc(CNC(=O)c2ncc3nc(N4CC(O)(CO)C4)ccc3c2O)cn1 [Example 119] | < 5 nM | 10000 to 100000 nM
COC(=O)N1CCN(c2ccc3c(O)c(C(=O)NCc4ccc(C#N)nc4)ncc3n2)CC1 [Example 120] | < 5 nM | 10000 to 100000 nM
COC(=O)C1(O)CN(c2ccc3c(O)c(C(=O)NCc4ccc(C#N)nc4)ncc3n2)C1 [Example 121] | < 5 nM | 7500 to 10000 nM
CC(C)(C)OC(=O)NC1CCN(c2ccc3c(O)c(C(=O)NCc4ccc(C#N)nc4)ncc3n2)CC1 [Example 123] | < 5 nM | 2500 to 5000 nM
N#Cc1ccc(CNC(=O)c2ncc3nc(N4CCC(N)CC4)ccc3c2O)cn1 [Example 124, 2-(4-aminopiperidin-1-yl)-N-((6-cyanopyridin-3-yl)methyl)-5-hydroxy-1,7-naphthyridine-6-carboxamide] | < 5 nM | 10000 to 100000 nM
CC(C)(C)OC(=O)N[C@H]1CCN(c2ccc3c(O)c(C(=O)NCc4ccc(C#N)nc4)ncc3n2)C1 [Example 125] | < 5 nM | < 2500 nM
N#Cc1ccc(CNC(=O)c2ncc3nc(N4CC[C@H](N)C4)ccc3c2O)cn1 [Example 126, (S)-2-(3-aminopyrrolidin-1-yl)-N-((6-cyanopyridin-3-yl)methyl)-5-hydroxy-1,7-naphthyridine-6-carboxamide] | < 5 nM | 10000 to 100000 nM
CC(C)(C)OC(=O)NC1CN(c2ccc3c(O)c(C(=O)NCc4ccc(C#N)nc4)ncc3n2)C1 [Example 127] | < 5 nM | < 2500 nM
N#Cc1ccc(CNC(=O)c2ncc3nc(N4CC(N)C4)ccc3c2O)cn1 [Example 128, 2-(3-aminoazetidin-1-yl)-N-((6-cyanopyridin-3-yl)methyl)-5-hydroxy-1,7-naphthyridine-6-carboxamide] | 20 to 100 nM | 5000 to 7500 nM
CC(C)(C)OC(=O)N1CCN(c2ccc3c(O)c(C(=O)NCc4ccc(C#N)nc4)ncc3n2)C[C@@H]1C#N [Example 132] | < 5 nM | 5000 to 7500 nM
CC(C)(C)OC(=O)N1CCN(c2ccc3c(O)c(C(=O)NCc4cnc(C#N)nc4)ncc3n2)CC1 [Example 133] | 5 to 20 nM | 2500 to 5000 nM
CC1(OC(=O)N2CCN(c3ccc4c(O)c(C(=O)NCc5ccc(C#N)nc5)ncc4n3)CC2)CC1 [Example 137] | < 5 nM | < 2500 nM
CC(C)OC(=O)N1CCN(c2ccc3c(O)c(C(=O)NCc4ccc(C#N)nc4)ncc3n2)CC1 [Example 138] | < 5 nM | 2500 to 5000 nM
C[C@H]1CN(C(=O)OC(C)(C)C)CCN1c1ccc2c(O)c(C(=O)NCc3ccc(C#N)nc3)ncc2n1 [Example 139] | < 5 nM | 2500 to 5000 nM
CC(C)(C)OC(=O)N[C@@H]1CCN(c2ccc3c(O)c(C(=O)NCc4ccc(C#N)nc4)ncc3n2)C1 [Example 140] | 5 to 20 nM | 2500 to 5000 nM
CC(C)(C)OC(=O)N[C@@H]1CN(c2ccc3c(O)c(C(=O)NCc4ccc(C#N)nc4)ncc3n2)C[C@@H]1F [Example 142] | 5 to 20 nM | 2500 to 5000 nM
CC(C)(C)OC(=O)N[C@H]1CC(=O)N(c2ccc3c(O)c(C(=O)NCc4ccc(C#N)nc4)ncc3n2)C1 [Example 143] | < 5 nM | < 2500 nM
CC(C)(C)OC(=O)NC1CCN(c2ccc3c(O)c(C(=O)NCc4ccc(C#N)nc4)ncc3n2)C1=O (stereo not drawn) [Example 144] | 5 to 20 nM | 2500 to 5000 nM
C[C@@H]1CN(c2ccc3c(O)c(C(=O)NCc4ccc(C#N)nc4)ncc3n2)CCN1C(=O)OC(C)(C)C [Example 149] | < 5 nM | 2500 to 5000 nM
C[C@@H]1CN(C(=O)OC(C)(C)C)CCN1c1ccc2c(O)c(C(=O)NCc3ccc(C#N)nc3)ncc2n1 [Example 150] | < 5 nM | < 2500 nM
COC(=O)CC1CN(c2ccc3c(O)c(C(=O)NCc4ccc(C#N)nc4)ncc3n2)C1 [Example 152] | < 5 nM | 2500 to 5000 nM
